Values after ≈ are worked out from the molar mass of the structure shown.

For this data set the following is noted: buffer; pH 7.4; 200.0 µM.
Regarding `Cc1nc2cc(C(=O)N3CCN(C)CC3)ccc2n1C`, the kinetic solubility (commonly solubility judged after dilution from a stock solution rather than from solid) was 40.2 µg/mL (≈ 148 µM).
For the molecule `CCc1noc(C)c1C(=O)N1CCN(S(=O)(=O)c2ccc(Cl)s2)CC1`, the solubility (kinetic) came out at 55.4 µg/mL (≈ 137 µM).
Under `COc1ccc2[nH]c(C(=O)Nc3ccc(C)c(F)c3)cc2c1` stands 0.7 µg/mL (≈ 2.35 µM); under `CCOc1ccc2nc(NCCNC(=O)C(C)(C)C)c(C)cc2c1`, 47.1 µg/mL (≈ 143 µM).
`COc1ccc(CCNC(=O)c2c(C)nc3ccccn23)cc1` had a kinetic solubility of 43 µg/mL (≈ 139 µM).
The figure for `CC(C)c1ccc(N2C(=O)C3C4C=CC(CC4)C3C2=O)cc1` (stereo not drawn) is 2.7 µg/mL (≈ 9.14 µM).
Under `Cc1ccccc1N1C(=O)c2cccc([N+](=O)[O-])c2C1=O` stands more than 42.3 µg/mL; under `O=C(CCNC(=O)c1ccco1)NCc1ccc(F)cc1`, more than 43.5 µg/mL.
Under `Cc1ccc(Nc2cc(=O)[nH]c(=O)[nH]2)cc1C` stands 18.2 µg/mL (≈ 78.7 µM); under `COc1ccccc1OCC(=O)Nc1nc2c(s1)CCCC2`, 8 µg/mL (≈ 25.1 µM); under `CC(C)(C)Nc1nc2cc([N+](=O)[O-])ccc2o1`, 10.9 µg/mL (≈ 46.3 µM).
Consider `CCSC1=NCCN1C(=O)c1c(-c2ccccc2Cl)noc1C`, for which the solubility (kinetic) is more than 52.5 µg/mL.
The figure for `Cc1ccnc(N2C(=O)c3ccccc3C2=O)c1` is more than 35.7 µg/mL.
For `O=C(CN1C(=O)c2ccccc2C1=O)N(CCO)Cc1ccccc1`, the kinetic solubility is 48.7 µg/mL (≈ 144 µM).
Molecule `COc1ccc(N(C)C(=O)Nc2ccc3nsnc3c2)cc1` yielded a solubility (kinetic) of 27.5 µg/mL (≈ 87.5 µM).
`Cc1ccc2nc(SCC(=O)NCc3cccs3)[nH]c2c1` gave a solubility (kinetic) of more than 47.6 µg/mL.
Under `COc1cccc(C(=O)Nc2cccc(NC(=O)c3cccs3)c2)c1` stands 13.5 µg/mL (≈ 38.3 µM); under `Cc1ccccc1N=C1c2ccccc2C(=O)C1[N+](=O)[O-]` (stereo not drawn), 31.7 µg/mL (≈ 113 µM).
Under `O=C(Nc1ccc(SC(F)F)cc1)c1ccccc1F` stands 6.1 µg/mL (≈ 20.5 µM); under `CCN(CC)C(=N)/C(C#N)=N/Nc1ccccc1`, more than 36.5 µg/mL; under `COc1ccc(NS(=O)(=O)c2ccc(F)cc2F)cn1`, 43.3 µg/mL (≈ 144 µM).
Consider `CC(C)NC(=O)c1ccccc1NC(=O)C1CC(=O)N(C(C)C)C1` (stereo not drawn), for which the solubility (kinetic) was more than 49.7 µg/mL.
Under `CCCOc1ccc(/C=N/NC(=O)CN2CCCCC2)cc1` stands more than 45.5 µg/mL; under `COc1ccc(C(=O)N[C@H](C(=O)NCCc2ccc3c(c2)OCCO3)C(C)C)cc1`, 19.7 µg/mL (≈ 47.8 µM).
The figure for `Cc1cc(=O)[nH]c(SCCc2ccccc2)n1` is 26.5 µg/mL (≈ 108 µM).
Under `CC(=O)N=C1SC2CS(=O)(=O)CC2N1Cc1ccc(C)cc1` (stereo not drawn) stands 19.7 µg/mL (≈ 58.2 µM); under `CN(C)S(=O)(=O)c1ccc(Cl)c(NC(=O)CNC2(C)CCS(=O)(=O)C2)c1` (stereo not drawn), more than 63.6 µg/mL; under `Cn1cc(C(=O)NCCO)c(=O)c2ccccc21`, more than 36.9 µg/mL.
`CCn1cc(S(=O)(=O)Nc2cc(C(=O)OC)ccc2C)cn1` gave a kinetic solubility of more than 48.5 µg/mL.
Under `COc1ccc(CSCC(=O)NCCC(C)C)cc1` stands more than 42.2 µg/mL; under `Fc1cccc(NC(=S)N2CCN(c3ccccn3)CC2)c1`, 5.6 µg/mL (≈ 17.7 µM); under `Nc1ccccc1C(=O)NC1CCCNC1=O` (stereo not drawn), more than 35 µg/mL.
The figure for `CC(=O)Nc1ccccc1OCC(=O)NCC(F)(F)F` is 43.2 µg/mL (≈ 149 µM).
Under `CC(=O)Nc1cc(C)c2nc(NC(C)=O)sc2c1` stands 25.7 µg/mL (≈ 97.6 µM).
The molecule `CNC(=O)CSc1nnc(-c2ccco2)n1-c1cccc(C)c1C` showed a kinetic solubility of more than 51.4 µg/mL.
Molecule `CC(=O)Nc1ccc(NS(=O)(=O)c2cc([N+](=O)[O-])ccc2C)cc1` gave a kinetic solubility of 2.6 µg/mL (≈ 7.44 µM).
Under `CNCCc1ccc(OC)c(OC)c1` stands more than 29.3 µg/mL; under `O=C(COC(=O)c1ccc[nH]c1=O)NC1CCCCCCC1`, 41.5 µg/mL (≈ 135 µM).
The figure for `Cc1cc(C)n2nc(SCc3ccccc3C(=O)O)nc2n1` is more than 47.2 µg/mL.
Under `N#Cc1ccccc1OCC(=O)NC(=O)NC1CCS(=O)(=O)C1` (stereo not drawn) stands more than 50.6 µg/mL.
Regarding `CCOc1ccccc1C(=O)Nc1cccc2cccnc12`, the solubility (kinetic) is less than 0.3 µg/mL.
Under `c1ccc2[nH]c(-c3ccc4c(c3)OCO4)nc2c1` stands 34.4 µg/mL (≈ 144 µM); under `CSCc1c(C(=O)Nc2ccc3c(c2)OCO3)oc2ccccc12`, 6.4 µg/mL (≈ 18.7 µM).
Under `CS(=O)(=O)Nc1ccccc1NS(C)(=O)=O` stands more than 39.6 µg/mL.
The figure for `O=C(O)C1CCCN(S(=O)(=O)Cc2ccccc2)C1` (stereo not drawn) is 37.7 µg/mL (≈ 133 µM).
`C[N+]1(CCOC(=O)C2(c3ccccc3)CCCC2)CCCCC1`: the kinetic solubility is more than 47.5 µg/mL.
`O=c1c2cc(NC(=S)N3CCCC3)ccc2nc2n1CCCCC2` returned a solubility (kinetic) of 6.1 µg/mL (≈ 17.8 µM).
Under `CN1CCN(c2nc(-c3ccccc3Cl)nc3ccccc23)CC1` stands more than 50.8 µg/mL; under `COC(CNS(=O)(=O)c1cccc2nonc12)OC`, more than 43.1 µg/mL; under `CCN1CCN(C(=O)CN2C(=O)COc3ccc(C)cc32)CC1`, more than 47.6 µg/mL.
The figure for `CC1CCN(S(=O)(=O)c2ccc(NC(=O)C3CC3)cc2)CC1` is 37.2 µg/mL (≈ 115 µM); for `COc1ncnc2c1oc1nc(C)c3c(c12)CC(C)(C)OC3` it is 4.9 µg/mL (≈ 16.4 µM); for `CC1=Nc2ccccc2N=C(NC(=O)/C=C/C(=O)O)C1c1ccccc1` (stereo not drawn) it is more than 52.1 µg/mL.
In turn, `N#CCOc1coc(CN2CCN(c3ccccc3)CC2)cc1=O` gave a solubility (kinetic) of more than 48.8 µg/mL.
In turn, `O=c1[nH]sc2ccccc12` gave a kinetic solubility of 21.7 µg/mL (≈ 144 µM).
Molecule `Cc1cc(NC(=O)c2cc(-c3ccc(O)cc3)on2)no1` showed a solubility (kinetic) of 0.5 µg/mL (≈ 1.75 µM).
The figure for `O=C(COC(=O)C1CC2C=CC1C2)Nc1ccc([N+](=O)[O-])cc1` (stereo not drawn) is more than 47.4 µg/mL; for `CCCn1c(=O)c2ccccc2n2c(=S)[nH]nc12` it is more than 39 µg/mL; for `COc1cc2c(cc1OC)/C(=C/C(=O)c1cccc([N+](=O)[O-])c1)NCC2` it is 0.5 µg/mL (≈ 1.41 µM).
The figure for `CN1CCN(CCCCOc2cccc3ccccc23)CC1.Cl` is more than 50.2 µg/mL; for `Cc1cc(Cl)ccc1NC(=O)Cn1cncn1` it is more than 37.6 µg/mL; for `Nc1nc(Nc2ccc(Cl)cc2)nc(NCCO)c1[N+](=O)[O-]` it is 3.1 µg/mL (≈ 9.55 µM).
Under `CCOC(=O)c1c(C)n(Cc2ccccc2)c2ccc(O)cc12` stands less than 0.7 µg/mL.
As for `CCC(C(=O)Nc1cccnc1)c1ccccc1` (stereo not drawn), the solubility (kinetic) came to 34.3 µg/mL (≈ 143 µM).
Under `CSc1ncccc1C(=O)OCC(=O)N1CCN(C(=O)c2ccco2)CC1` stands more than 58.4 µg/mL; under `COc1ccc(/C=C2\N=C(C)OC2=O)cc1OC(C)=O`, more than 41.3 µg/mL; under `CC(=O)N/C(=C\c1ccccc1)C(=O)OCC(=O)N(C)C1CCS(=O)(=O)C1` (stereo not drawn), more than 59.2 µg/mL.
Under `CC1CCCCN1CC(=O)c1c[nH]c2ccccc12` (stereo not drawn) stands more than 38.5 µg/mL; under `O=S(=O)(Nc1ccccc1)c1cccc2nonc12`, more than 41.3 µg/mL.
Under `C=CCN=C1S/C(=C\N(C)C)C(=O)N1S(=O)(=O)c1ccc(C)cc1` stands 2.8 µg/mL (≈ 7.66 µM); under `N#CC1(NC(=O)COc2ccccc2[N+](=O)[O-])CCCCC1`, more than 45.5 µg/mL; under `COc1ccc(NC(=S)Nc2ccccc2SC)c(OC)c1`, 47.5 µg/mL (≈ 142 µM).
Take `CCOC(=O)C1=C(c2ccc(O)cc2)NC(=O)NC1C` (stereo not drawn): the kinetic solubility was determined as 37 µg/mL (≈ 134 µM).
Under `COc1ccc(CNC(=O)CN2C(=O)c3ccccc3C2=O)cc1` stands 4.4 µg/mL (≈ 13.6 µM); under `S=C(c1ccc2c(c1)OCO2)N1CCOCC1`, more than 37.7 µg/mL; under `CN1CCN(C(=O)/C=C/c2ccc(Cl)c(Cl)c2)CC1`, 41 µg/mL (≈ 137 µM).
`CC(C)c1ccc(Nc2nc(Cl)nc(NCCO)n2)cc1` returned a kinetic solubility of 2.7 µg/mL (≈ 8.77 µM).
Consider `CC1=NOC(=O)/C1=C/c1ccc(O)c(Br)c1`, for which the kinetic solubility amounted to 32.4 µg/mL (≈ 115 µM).
Under `Cc1cc(C)cc(Oc2coc3c(CN(C)C)c(O)ccc3c2=O)c1` stands more than 50.9 µg/mL; under `Cc1[nH]c2ccc(F)cc2c1CCN1C(=O)OC(C)(C)C1(C)O` (stereo not drawn), more than 48.1 µg/mL.
The figure for `Cc1ccc(NC(=O)OCCNC(=O)c2ccncc2)cc1` is 44.4 µg/mL (≈ 148 µM); for `CC1CCN(CC(=O)N2CCN(c3ccccc3)CC2)CC1` it is 40.8 µg/mL (≈ 135 µM).
Under `COc1ccc(CCC(=O)Nc2ccc(Cn3ccnc3)cc2)cc1` stands 44.2 µg/mL (≈ 132 µM); under `Cc1ccc2[nH]c(=O)c3cc(C(=O)NCCC(C)C)sc3c2c1`, less than 0.4 µg/mL.
For `CC(=O)c1cn(CCOc2cc(C)ccc2C)c2ccccc12`, the kinetic solubility was less than 0.7 µg/mL.
Under `CCC(C)NC(=O)CSc1ccc(S(=O)(=O)N(C)C2CCCCC2)cn1` (stereo not drawn) stands 59.4 µg/mL (≈ 149 µM).
Under `CC(C)CN(C(=O)CCNC(=O)c1ccc(Cl)cc1)C1CCS(=O)(=O)C1` (stereo not drawn) stands more than 60.1 µg/mL; under `Cc1onc(-c2c(F)cccc2Cl)c1C(=O)Nc1ccc(S(=O)(=O)N2CCOCC2)cc1`, 2.3 µg/mL (≈ 4.79 µM).
Under `CN(C)[C@@H]1C(=O)C(C(N)=O)=C(O)[C@@]2(O)C(=O)C3=C(O)c4c(O)cccc4[C@@](C)(O)[C@H]3[C@H](O)[C@@H]12` stands 47 µg/mL (≈ 102 µM); under `CCn1cc(CCC(=O)NCCN2CCOCC2)c2ccccc21`, 48.9 µg/mL (≈ 148 µM).
`COc1cc(C(=O)OC(C)C(=O)N2CCCC2)cc2c1OCCO2` (stereo not drawn) yielded a kinetic solubility of more than 50.3 µg/mL.
With `Cc1ccc(Cl)cc1Nc1nc(-c2cccnc2)cs1`, the kinetic solubility was determined as 0.2 µg/mL (≈ 0.663 µM).
The figure for `OC(CN1CCOCC1)Cn1c2ccccc2c2ccccc21` (stereo not drawn) is more than 46.6 µg/mL; for `COc1ccc(CCNC(=O)CCC(=O)NC2CCCCC2)cc1OC` it is more than 54.4 µg/mL; for `CC(C)(C)c1ccc(/C=C(\C#N)C(=O)NC2CC2)cc1` it is 3.7 µg/mL (≈ 13.8 µM).
The figure for `CS(=O)(=O)N(CC(=O)N1CCCC1)c1ccccc1F` is more than 45.1 µg/mL.
Under `CCc1cccc(C)c1NS(=O)(=O)Cc1ccccc1` stands more than 43.4 µg/mL; under `Cc1ccc(NC(=O)c2cnccn2)nc1`, more than 32.1 µg/mL.
As to `COc1cccc(N(CC(=O)N2CCCC2)S(C)(=O)=O)c1`, the solubility (kinetic) was more than 46.9 µg/mL.
Under `Cc1cc(C)c(C)c(OCCCCN2CCCCC2)c1` stands 29.4 µg/mL (≈ 107 µM).
The figure for `O=S(=O)(c1ccc(SCCO)nc1)N1CCOCC1` is more than 45.7 µg/mL; for `CC(Nc1cccc(F)c1)C(=O)Nc1ccc(S(N)(=O)=O)cc1` (stereo not drawn) it is more than 50.6 µg/mL.
In turn, `CC1CCCN(c2nc(N(C)c3ccccc3)nc(N)c2[N+](=O)[O-])C1` (stereo not drawn) displayed a kinetic solubility of 4.5 µg/mL (≈ 13.1 µM).

The record behind these values is PubChem BioAssay AID1996.
